# Test results from PMC6518372, “An enzymatically stable GIP/xenin hybrid peptide restores GIP sensitivity, enhances beta cell function and improves glucose homeostasis in high-fat-fed mice” (Diabetologia, 2016).
# Key:
# Assay type in all cases: in vivo, mouse
# high-fat-fed mice [1] = test: Pancreatic insulin content and islet histology after 21 day treatment; conditions: 21 days at 25 nmol/kg twice daily i.p.
# Procedure: Pancreas tissue was excised, divided longitudinally and either snap frozen for extraction of insulin using acid ethanol (5 ml/g), as described previously, or processed for immunohistochemical examination. Immunohistochemistry was performed as described previously. For specific details, please see ESM Methods. […]
# insulin secretory studies, blood glucose and plasma insulin were measured immediately prior to and 15, 30, 60 and 105 min after i.p. administration of glucose alone (18 mmol/kg bw) or in combination with test peptides (each at 25 nmol/kg bw) in non-fasted mice.
# Immunohistochemistry Tissue sections were deparaffinised, rehydrated and probed with primary antibodies: mouse anti-insulin antibody (1:500; Abcam, ab6995), guinea-pig anti-glucagon antibody (PCA2/4, 1:400; raised in-house) or rabbit anti-Ki67 (1:200; Abcam ab16667), as appropriate. We confirmed the specificity of all antibodies in blocking experiments using the native peptide. Sections were then incubated with secondary antibody, Alexa Fluor 488 goat anti-guinea pig IgG (1:400), Alexa Fluor 594 goat anti-mouse IgG (1:400) or Alexa Fluor 594 goat anti-rabbit IgG (1:400); respectively. TUNEL staining was performed using fluorescein in situ cell detection kit (Roche Diagnostics, Germany). The slides were viewed under a FITC (488 nm) or TRITC filter (594 nm) using a fluorescent microscope (Olympus system microscope, model BX51) and photographed using a DP70 camera adapter system. Islet parameters were analysed using CellF image analysis software (Olympus Soft Imaging Solutions, GmbH).
# lean control mice [2] = test: Acute glucose-lowering and insulin-releasing effects in lean mice; conditions: 25 nmol/kg i.p. with glucose 18 mmol/kg, non-fasted lean mice
# Procedure: Specific information on acute feeding, glucose homeostasis and insulin-secretory studies is given in ESM Methods. To assess the impact of GIP and neurotensin receptor activation on (DAla^2)GIP/xenin-8-Gln-induced glucose-lowering and insulin-secretory actions in mice, (DAla^2)GIP/xenin-8-Gln was administered by i.p. injection (25 nmol/kg body weight) in combination with glucose (18 mmol/kg) in the absence and presence of GIP(6-30)Cex-K^40[Pal] and SR142948A (both at 25 nmol/kg), and glucose and insulin were measured as described above. In a final series of experiments, test peptides (25 nmol/kg) or saline vehicle (0.9% wt/vol. NaCl) were injected 4 h before a glucose load (18 mmol/kg) in non-fasted mice and blood glucose and plasma insulin measured as above. […]
# Animals Acute animal studies were conducted in male NIH Swiss mice (12-14 weeks old, Harlan Ltd, UK) maintained on a standard rodent maintenance diet (10% fat, 30% protein and 60% carbohydrate, Trouw Nutrition, UK). Prior to commencement of longer term studies, all animals, except lean controls that continued on rodent maintenance diet, were maintained on a high-fat diet (45% fat, 35% carbohydrate and 20% protein, Special Diet Services, UK) for 12 weeks. This diet […]
# individually in an air-conditioned room at 22 ± 2 °C with a 12 h light:12 h dark cycle and had free access to food and water. Animal experiments were carried out in accordance with the UK Animals (Scientific Procedures) Act 1986.
# Acute in vivo effects in lean mice For food intake studies, fasted (18 h) mice were given intraperitoneal (i.p) injections of peptides at a dose of 25, 100 or 250 nmol/kg bw. Mice were then allowed free access to normal chow for 180 mins and cumulative food intake measured. For glucose homeostasis and […]
# high-fat-fed mice [3] = test: Insulin sensitivity test after 21 day treatment; conditions: insulin 15 U/kg i.p., non-fasted high-fat-fed mice after 21 days at 25 nmol/kg twice daily
# Procedure: Twice-daily (09:30 and 17:30 hours) i.p. injections of saline vehicle, (DAla^2)GIP or (DAla^2)GIP/xenin-8-Gln hybrid (both at 25 nmol/kg) were administered for 21 days in high-fat-fed mice. Energy intake and body weight were monitored daily and non-fasting blood glucose and plasma insulin concentrations were assessed at 3 day intervals. On day 21, a non-fasted 24 h glucose profile was conducted. At the end of the treatment period, i.p. glucose tolerance (18 mmol/kg), biological response to GIP (18 mmol/kg glucose in combination with native GIP [25 nmol/kg], i.p.) and insulin sensitivity (15 U/kg; i.p.) tests were performed. Terminal analysis included measurement of total body fat and lean mass by dual-energy X-ray absorptiometry (DEXA) scanning (Piximus Densitometer; Inside Outside Sales, Fitchburg, WI, USA) and extraction of pancreatic tissue for analysis as detailed below.
# Fig. 4 Effects of twice-daily administration of (DAla^2)GIP and (DAla^2)GIP/xenin-8-Gln on insulin sensitivity and pancreatic insulin content in high-fat-fed mice. […] Blood glucose was measured (a), area above the curve (AAC) was calculated using identical baseline subtraction for each group (b) and pancreatic insulin content was measured by RIA (c). […]
# lean control mice [4] = test: Persistent glucose-lowering and insulin-releasing effects, peptide 4 h before glucose load; conditions: 25 nmol/kg injected 4 h before i.p. glucose load 18 mmol/kg, non-fasted lean mice, vs saline
# Procedure: Specific information on acute feeding, glucose homeostasis and insulin-secretory studies is given in ESM Methods. To assess the impact of GIP and neurotensin receptor activation on (DAla^2)GIP/xenin-8-Gln-induced glucose-lowering and insulin-secretory actions in mice, (DAla^2)GIP/xenin-8-Gln was administered by i.p. injection (25 nmol/kg body weight) in combination with glucose (18 mmol/kg) in the absence and presence of GIP(6-30)Cex-K^40[Pal] and SR142948A (both at 25 nmol/kg), and glucose and insulin were measured as described above. In a final series of experiments, test peptides (25 nmol/kg) or saline vehicle (0.9% wt/vol. NaCl) were injected 4 h before a glucose load (18 mmol/kg) in non-fasted mice and blood glucose and plasma insulin measured as above.
structure (smiles),measurement,setting,value
CC[C@H](C)[C@H](NC(=O)[C@H](CO)NC(=O)[C@H](Cc1ccc(O)cc1)NC(=O)[C@H](CC(=O)O)NC(=O)[C@H](CO)NC(=O)[C@@H](NC(=O)[C@H](Cc1ccccc1)NC(=O)[C@@H](NC(=O)CNC(=O)[C@H](CCC(=O)O)NC(=O)[C@@H](C)NC(=O)[C@@H](N)Cc1ccc(O)cc1)[C@@H](C)O)[C@@H](C)CC)C(=O)N[C@@H](C)C(=O)N[C@@H](CCSC)C(=O)N[C@@H](CC(=O)O)C(=O)N[C@@H](CCCCN)C(=O)N[C@H](C(=O)N[C@@H](Cc1c[nH]cn1)C(=O)N[C@@H](CCC(N)=O)C(=O)N[C@@H](CCC(N)=O)C(=O)N[C@@H](CC(=O)O)C(=O)N[C@@H](Cc1ccccc1)C(=O)N[C@H](C(=O)N[C@@H](CC(N)=O)C(=O)N[C@@H](Cc1c[nH]c2ccccc12)C(=O)N[C@@H](CC(C)C)C(=O)N[C@@H](CC(C)C)C(=O)N[C@@H](C)C(=O)N[C@@H](CCC(N)=O)C(=O)N[C@@H](CCCCN)C(=O)NCC(=O)N[C@@H](CCCCN)C(=O)N[C@@H](CCCCN)C(=O)N[C@@H](CC(N)=O)C(=O)N[C@@H](CC(=O)O)C(=O)N[C@@H](Cc1c[nH]c2ccccc12)C(=O)N[C@@H](CCCCN)C(=O)N[C@@H](Cc1c[nH]cn1)C(=O)N[C@@H](CC(N)=O)C(=O)N[C@H](C(=O)N[C@H](C(=O)N[C@@H](CCC(N)=O)C(=O)O)[C@@H](C)O)[C@@H](C)CC)C(C)C)[C@@H](C)CC [(DAla^2)GIP],Beta cell area,high-fat-fed mice [1],no significant effect on overall pancreatic islet area or beta cell area
same,Pancreatic islet area,high-fat-fed mice [1],no significant effect on overall pancreatic islet area or beta cell area
same,Number of islets per mm^2,high-fat-fed mice [1]; vs all other groups,significantly (p < 0.05 to p < 0.01) augmented
same,Alpha cell area,high-fat-fed mice [1]; vs high-fat-fed controls,decreased (p < 0.001) alpha cell area
same,Frequency of beta cell apoptosis (TUNEL),high-fat-fed mice [1]; vs high-fat-fed controls,significantly (p < 0.01) decreased
same,Blood glucose,lean control mice [2]; 15 min post injection,significant (p < 0.05) reduction in blood glucose levels
same,Blood glucose,"lean control mice [2]; 30 min post injection, vs glucose alone",significantly (p < 0.05) lowered blood glucose values
same,Overall AUC blood glucose,lean control mice [2]; vs glucose alone,significantly (p < 0.05) decreased overall AUC blood glucose values
same,Individual blood glucose levels following exogenous insulin,high-fat-fed mice [3],"reduced, albeit non-significantly"
same,Overall glucose-lowering effect of insulin (area above the curve),high-fat-fed mice [3]; vs control high-fat mice,significantly (p < 0.001) improved
same,Overall AUC for blood glucose after glucose challenge,lean control mice [4],significantly reduced the overall AUC for blood glucose (p < 0.05)
same,Plasma insulin AUC after glucose challenge,lean control mice [4],increased plasma insulin AUC (p < 0.05)
